Measurements from PubChem BioAssay (NCI).
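How tested: cells in 96-well plates exposed to compound for 48 hours at five concentrations. GI50: concentration for 50% inhibition of growth. TGI marks complete inhibition of growth.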

Tests used:
Test in all cases: inhibition of tumour cell growth, NCI panel, 48 h
ACHN renal = tested on: ACHN renal
K-562 leukemia = tested on: K-562 leukemia
M14 melanoma = tested on: M14 melanoma
SK-OV-3 ovarian = tested on: SK-OV-3 ovarian
SN12C renal = tested on: SN12C renal
U251 CNS = tested on: U251 CNS
UACC-257 melanoma = tested on: UACC-257 melanoma
NCI/ADR-RES ovarian = tested on: NCI/ADR-RES ovarian
PC-3 prostate = tested on: PC-3 prostate
MDA-MB-435 = tested on: MDA-MB-435

| Structure (SMILES) | TGI (ACHN renal) [µM] | TGI (K-562 leukemia) [µM] | TGI (M14 melanoma) [µM] | TGI (SK-OV-3 ovarian) [µM] | TGI (SN12C renal) [µM] | TGI (U251 CNS) [µM] | TGI (UACC-257 melanoma) [µM] | GI50 (ACHN renal) [µM] | GI50 (K-562 leukemia) [µM] | GI50 (M14 melanoma) [µM] | GI50 (NCI/ADR-RES ovarian) [µM] | TGI (NCI/ADR-RES ovarian) [µM] | GI50 (PC-3 prostate) [µM] | TGI (PC-3 prostate) [µM] | GI50 (SK-OV-3 ovarian) [µM] | GI50 (SN12C renal) [µM] | GI50 (U251 CNS) [µM] | GI50 (MDA-MB-435) [µM] | TGI (MDA-MB-435) [µM] | GI50 (UACC-257 melanoma) [µM] |
| --- | --- | --- | --- | --- | --- | --- | --- | --- | --- | --- | --- | --- | --- | --- | --- | --- | --- | --- | --- | --- |
| N#CCc1cccc(CC#N)c1Br | > 100 | > 100 | > 100 | > 100 | > 100 | > 100 | > 100 |  |  |  |  |  |  |  |  |  |  |  |  |  |
| O=C(O)CSc1n[nH]c(-c2ccco2)n1 | > 100 | > 100 | > 100 | > 100 | > 100 | > 100 | > 100 |  |  |  |  |  |  |  |  |  |  |  |  |  |
| O=C1CCC(=O)N1Sc1ccccc1 | > 100 | > 100 | > 100 | > 100 | > 100 | > 100 | > 100 |  |  |  |  |  |  |  |  |  |  |  |  |  |
| COc1ccc(C2=Nn3c(nnc3-n3nc(C)cc3C)SC2)cc1 | > 100 | > 100 | > 100 | > 100 | > 100 | > 100 |  | 0.0781 | 0.0351 | 0.0626 | 0.0536 | > 100 | 0.0453 | > 100 | 0.0908 | 0.298 | 0.0532 |  |  |  |
| O=NNc1ccc(S(=O)(=O)c2ccc3ccccc3c2)cn1 | > 100 | > 100 | > 100 | > 100 | > 100 | > 100 | > 100 |  |  |  |  | > 100 |  | > 100 |  |  |  |  |  |  |
| CCOC(=O)c1c(NC(=O)c2ccc(Cl)cc2)sc2c(CN(C)C)c(O)ccc12 | 18.3 | 5.07 | 5.87 | 33.3 | > 100 | 23.5 |  | 4.28 | 1.62 | 2.24 | 8.57 | 36.1 | 8.44 | 37.3 | 10.9 | 14.6 | 4.85 | 6.62 | 29.9 |  |
| O=C(O)CCCCC1CCSS1 (stereo unspecified) | > 100 | > 100 | > 100 |  |  | > 100 | > 100 |  |  |  |  | > 100 |  | > 100 |  |  |  |  | > 100 |  |
| COc1cc(-c2nn(-c3cccc(NC(=O)CCN4CCN(c5ccccc5)CC4)c3)cc2-c2ccncc2)ccc1Cl | > 100 |  | 7.01 | > 100 | > 100 | > 100 | 95.5 | 2.67 |  | 2.31 | 3.18 | > 100 | 3.1 | > 100 | 4.27 | 3.72 | 3.13 | 2.57 | 13 | 5.29 |
| O=CN1N=C(c2cccc(Nc3ccnc4cc(Cl)ccc34)c2)CC1c1ccc(Cl)cc1 (stereo unspecified) | > 100 | > 100 | > 100 | 56.9 | > 100 | 20.7 |  | 5.17 | 0.413 | 1.04 | 0.759 | 3.94 |  |  | 3.48 | 3.86 | 1.29 | 0.293 | 24.9 |  |
| COCC(C(=O)OC1C/C=C/C=C/C(=O)OC(C(C)C(O)C(C)CCC(OC(=O)C(C)N(C)C)C(C)C(OC(C)=O)C(C)/C=C/N(C)C=O)C/C=C/C(OC)CC(C)C/C=C(\C)C(OC)CCC(C)C(O)C1C)N(C)C (stereo unspecified) | > 0.393 | 0.116 | 0.00697 | 0.0164 | 0.105 | 0.154 | > 1 | 0.000173 | < 0.0001 | < 0.0001 | < 0.0001 | 0.000552 | < 0.0001 | > 1 | < 0.0001 | < 0.0001 | < 0.0001 |  |  | < 0.0001 |
| CN(C)CCN1CCc2c([nH]c3ccccc23)C1c1cccnc1 (stereo unspecified) | 50.9 | > 100 | > 100 | > 100 | > 100 | > 100 | > 100 |  |  |  |  |  |  |  |  |  |  |  |  |  |
| O=C1OC(=O)C([Se]c2ccccc2)=C1[Se]c1ccccc1 | > 100 | > 100 | > 100 | > 100 | > 100 | > 100 | > 100 |  |  |  |  |  |  |  |  |  |  |  |  |  |
| OCC(O)C(O)C(O)c1nn(-c2ccc(F)cc2)c2nc3cc(Cl)c(Cl)cc3nc12 (stereo unspecified) |  | 43.2 | 91.8 | 46.4 | 62.4 | > 100 | 55.1 |  |  |  |  |  |  |  |  |  |  |  |  |  |
| CC1(C)OC(=O)C(=C2CCC(C(=O)Nc3cccc(C(F)(F)F)c3)N2)C(=O)O1 (stereo unspecified) | > 100 | > 100 | > 100 | > 100 | > 100 | > 100 | > 100 |  |  |  |  |  |  |  |  |  |  |  |  |  |
| COc1cccc(/C=N\NC(=O)C(C)SC(C)C(=O)N/N=C/c2cccc(OC)c2)c1 (stereo unspecified) | 35.6 | > 100 | > 100 | 32.4 | 42.8 | 35.9 | > 100 |  |  |  |  |  |  |  |  |  |  |  |  |  |
| COc1ccc(Br)c(C(=O)N2CCc3ccccc32)c1N | > 100 | > 100 | > 100 | 80.2 | > 100 | > 100 | > 100 |  |  |  |  |  |  |  |  |  |  |  |  |  |
| CCOC1Oc2ccc(C)cc2C(=O)/C1=C\Nc1ccc(S(N)(=O)=O)cc1 (stereo unspecified) | 45 | > 50 | 21.5 | > 50 | 31.9 | > 50 |  | 12.6 | 15.2 | 9.32 | 6.14 | 18.5 | 16.6 | > 50 | 17.7 | 11.6 | 12.9 | 10 | 23.8 |  |
| Cc1cc(Cl)ccc1NC(=O)C1C(=O)N(c2ccc(Cl)cc2C)C(=O)/C1=N\NC(N)=S (stereo unspecified) | > 100 | 57.8 | > 100 |  | 96.3 | 39.6 | > 100 |  |  |  |  |  |  |  |  |  |  |  |  |  |
| Cc1ccc2ccc(-c3ccccc3)c3c2c1C(=O)c1ccccc1C3=O | > 100 | > 100 | > 100 | > 100 | > 100 | > 100 | > 100 |  |  |  |  |  |  |  |  |  |  |  |  |  |
| COc1ccccc1NC(=O)C1=C(C)NC(C)=C(C(=O)Nc2ccccc2OC)C1c1ccco1 | > 100 | > 63.5 | 31.9 | > 76.3 | 89.9 | 47 | 43.4 |  |  |  |  |  |  | > 100 |  |  |  |  | 19.8 |  |
| COc1cc(OC)c2c(=O)c3cccc([N+](=O)[O-])c3n(C)c2c1 |  | > 100 | > 100 | > 100 | > 100 | > 100 | > 100 |  |  |  |  |  |  |  |  |  |  |  |  |  |
